Experiments:
Type in all cases: cell-based
[1] = test system: Salmonella typhimurium TA1537; assay: Ames test (reverse mutation test), TA1537
Protocol: (§1) The solvent used herein was dimethyl sulfoxide (DMSO, 100 µL/plate).
(§2) The mixtures were preincubated at 37° C. for 20 minutes while shaking. […] Two plates per treatment were used.

[2] = test system: Salmonella typhimurium TA98; assay: Ames test (reverse mutation test), TA98
Protocol: as §1, §2

[3] = test system: Salmonella typhimurium TA1535; assay: Ames test (reverse mutation test), TA1535
Protocol: as §1, §2

Escherichia coli WP2uvrA = assay: Ames test (reverse mutation test), WP2uvrA
Protocol: as §1, §2

[4] = test system: Salmonella typhimurium TA100; assay: Ames test (reverse mutation test), TA100
Protocol: as §1, §2

Nc1cc(-c2cccc(OC(F)(F)F)c2)n(-c2cccc(F)c2)n1 [Metabolite G]
Number of revertant colonies TA1537 ([1]; S9 Mix +, dose 2.3 µg/plate): 13 | Number of revertant colonies TA1537 ([1]; S9 Mix +, dose 6.9 µg/plate): 13 | Number of revertant colonies TA1537 ([1]; S9 Mix +, dose 21 µg/plate): 16 | Number of revertant colonies TA1537 ([1]; S9 Mix +, dose 62 µg/plate): 15 | Number of revertant colonies TA1537 ([1]; S9 Mix +, dose 185 µg/plate): 13 | Number of revertant colonies TA1537 ([1]; S9 Mix +, dose 556 µg/plate): 0 | Number of revertant colonies TA1537 ([1]; S9 Mix +, dose 1667 µg/plate): 0 | Number of revertant colonies TA1537 ([1]; S9 Mix +, dose 5000 µg/plate): 0 | Number of revertant colonies TA1537 ([1]; S9 Mix -, dose 2.3 µg/plate): 15 | Number of revertant colonies TA1537 ([1]; S9 Mix -, dose 6.9 µg/plate): 15 | Number of revertant colonies TA1537 ([1]; S9 Mix -, dose 21 µg/plate): 17 | Number of revertant colonies TA1537 ([1]; S9 Mix -, dose 62 µg/plate): 7 | Number of revertant colonies TA1537 ([1]; S9 Mix -, dose 185 µg/plate): 0 | Number of revertant colonies TA1537 ([1]; S9 Mix -, dose 556 µg/plate): 0 | Number of revertant colonies TA1537 ([1]; S9 Mix -, dose 1667 µg/plate): 0 | Number of revertant colonies TA1537 ([1]; S9 Mix -, dose 5000 µg/plate): 0 | Number of revertant colonies TA98 ([2]; S9 Mix +, dose 2.3 µg/plate): 35 | Number of revertant colonies TA98 ([2]; S9 Mix +, dose 6.9 µg/plate): 63 | Number of revertant colonies TA98 ([2]; S9 Mix +, dose 21 µg/plate): 76 | Number of revertant colonies TA98 ([2]; S9 Mix +, dose 62 µg/plate): 75 | Number of revertant colonies TA98 ([2]; S9 Mix +, dose 185 µg/plate): 45 | Number of revertant colonies TA98 ([2]; S9 Mix +, dose 556 µg/plate): 12 | Number of revertant colonies TA98 ([2]; S9 Mix +, dose 1667 µg/plate): 11 | Number of revertant colonies TA98 ([2]; S9 Mix +, dose 5000 µg/plate): 0 | Number of revertant colonies TA98 ([2]; S9 Mix -, dose 2.3 µg/plate): 31 | Number of revertant colonies TA98 ([2]; S9 Mix -, dose 6.9 µg/plate): 30 | Number of revertant colonies TA98 ([2]; S9 Mix -, dose 21 µg/plate): 31 | Number of revertant colonies TA98 ([2]; S9 Mix -, dose 62 µg/plate): 30 | Number of revertant colonies TA98 ([2]; S9 Mix -, dose 185 µg/plate): 13 | Number of revertant colonies TA98 ([2]; S9 Mix -, dose 556 µg/plate): 15 | Number of revertant colonies TA98 ([2]; S9 Mix -, dose 1667 µg/plate): 8 | Number of revertant colonies TA98 ([2]; S9 Mix -, dose 5000 µg/plate): 0 | Number of revertant colonies TA1535 ([3]; S9 Mix +, dose 556 µg/plate): 5 | Number of revertant colonies TA1535 ([3]; S9 Mix +, dose 1667 µg/plate): 4 | Number of revertant colonies TA1535 ([3]; S9 Mix -, dose 185 µg/plate): 9 | Number of revertant colonies TA1535 ([3]; S9 Mix -, dose 556 µg/plate): 0 | Number of revertant colonies TA1535 ([3]; S9 Mix -, dose 1667 µg/plate): 0 | potential to induce reverse mutations ([3]; TA1535 without S9 mix): showed potential to induce reverse mutations | Number of revertant colonies WP2uvrA (Escherichia coli WP2uvrA; S9 Mix +, dose 2.3 µg/plate): 34 | Number of revertant colonies WP2uvrA (Escherichia coli WP2uvrA; S9 Mix +, dose 6.9 µg/plate): 39 | Number of revertant colonies WP2uvrA (Escherichia coli WP2uvrA; S9 Mix +, dose 21 µg/plate): 22 | Number of revertant colonies WP2uvrA (Escherichia coli WP2uvrA; S9 Mix +, dose 62 µg/plate): 24 | Number of revertant colonies WP2uvrA (Escherichia coli WP2uvrA; S9 Mix +, dose 185 µg/plate): 16 | Number of revertant colonies WP2uvrA (Escherichia coli WP2uvrA; S9 Mix +, dose 556 µg/plate): 14 | Number of revertant colonies WP2uvrA (Escherichia coli WP2uvrA; S9 Mix +, dose 1667 µg/plate): 9 | Number of revertant colonies WP2uvrA (Escherichia coli WP2uvrA; S9 Mix +, dose 5000 µg/plate): 14 | Number of revertant colonies WP2uvrA (Escherichia coli WP2uvrA; S9 Mix -, dose 2.3 µg/plate): 26 | Number of revertant colonies WP2uvrA (Escherichia coli WP2uvrA; S9 Mix -, dose 6.9 µg/plate): 23 | Number of revertant colonies WP2uvrA (Escherichia coli WP2uvrA; S9 Mix -, dose 21 µg/plate): 16 | Number of revertant colonies WP2uvrA (Escherichia coli WP2uvrA; S9 Mix -, dose 62 µg/plate): 14 | Number of revertant colonies WP2uvrA (Escherichia coli WP2uvrA; S9 Mix -, dose 185 µg/plate): 15 | Number of revertant colonies WP2uvrA (Escherichia coli WP2uvrA; S9 Mix -, dose 556 µg/plate): 10 | Number of revertant colonies WP2uvrA (Escherichia coli WP2uvrA; S9 Mix -, dose 1667 µg/plate): 17 | Number of revertant colonies WP2uvrA (Escherichia coli WP2uvrA; S9 Mix -, dose 5000 µg/plate): 6 | Number of revertant colonies TA100 ([4]; S9 Mix +, dose 2.3 µg/plate): 153 | Number of revertant colonies TA100 ([4]; S9 Mix +, dose 6.9 µg/plate): 248 | Number of revertant colonies TA100 ([4]; S9 Mix +, dose 21 µg/plate): 506 | Number of revertant colonies TA100 ([4]; S9 Mix +, dose 62 µg/plate): 630 | Number of revertant colonies TA100 ([4]; S9 Mix +, dose 185 µg/plate): 380 | Number of revertant colonies TA100 ([4]; S9 Mix +, dose 556 µg/plate): 82 | Number of revertant colonies TA100 ([4]; S9 Mix +, dose 1667 µg/plate): 94 | Number of revertant colonies TA100 ([4]; S9 Mix +, dose 5000 µg/plate): 226 | Number of revertant colonies TA100 ([4]; S9 Mix -, dose 2.3 µg/plate): 91 | Number of revertant colonies TA100 ([4]; S9 Mix -, dose 6.9 µg/plate): 101 | Number of revertant colonies TA100 ([4]; S9 Mix -, dose 21 µg/plate): 93 | Number of revertant colonies TA100 ([4]; S9 Mix -, dose 62 µg/plate): 90 | Number of revertant colonies TA100 ([4]; S9 Mix -, dose 185 µg/plate): 80 | Number of revertant colonies TA100 ([4]; S9 Mix -, dose 556 µg/plate): 59 | Number of revertant colonies TA100 ([4]; S9 Mix -, dose 1667 µg/plate): 61 | Number of revertant colonies TA100 ([4]; S9 Mix -, dose 5000 µg/plate): 47 | potential to induce reverse mutations ([4]; TA100 with S9 mix): showed potential to induce reverse mutations
